This note sets out measurements from patent US9744263B2, “Bone tissue implant comprising strontium ions” (ASTRA TECH AB, priority 2007, dated 2017).

Holding throughout (type): cell-based, human
The test system of assay [1] is MG-63 cells. In words: MG-63 proliferation on reference surfaces with strontium (NucleoCounter). To be noted: 0.5 mM strontium on reference surface 1, 7 days, compared to unstimulated reference surfaces 1 and 2. The method, then: Sterilized (β-radiation) Ti coins with reference surfaces 1 and 2, respectively were placed in 24 well plates. MG-63 cells were subcultured onto the coins in the 24 well plates at a plating density of 10 000 cells/cm^2, in total 20 000 cells/well. Sterile filtered Sr(NO3)2 at final concentrations of 5 mM and 0.5 mM (pH 5.2) was added to the respective wells. Untreated cells were used as controls. Cells were cultured for 7 days at a temperature of 37° C. in an atmosphere of 5% CO2 and 100% humidity.
The total number of cells in each well (×10^5) after each time period was determined by the NucleoCassette method by the NucleoCounter (ChemoMetec A/S Denmark).
The number of cells was investigated by lysis of the cells in “Reagent A” having a pH of 1.25 following stabilization by “Reagent B”. In the NucleoCassette, propidium iodide was incorporated which targets the amount of released DNA. The cassette was placed in the NucleoCounter and the amount of measured fluorochrome corresponded to the amount of DNA. The instructions from the manufacturer were followed (Chemometec A/S, Denmark).

The test system of assay [2] is MG-63 cells. In words: ALP production on reference surfaces. The conditions noted are these: 0.5 mM strontium on reference surface 1, after 7 days of cell culture. The method, then:
(§1) At harvest, the cell culture medium was analysed with respect to the ALP content. The intracellular ALP was measured by cell lysis according to the instructions of the manufacturer (SenzoLyte™ pNPP Alkaline Phosphatase Assay Kit Colorimetric BioSite, Sweden). The absorption was set at 405 nm by an automatic plate reader (Vmax, Molecular Device, UK). By comparing the optical density of the samples with the standard provided with the kit, the ALP concentrations could be determined. The instructions from the manufacturer were followed (BioSite, Sweden).
The production of ALP on reference surface 1 comprising a concentration of 0.5 mM strontium was compared with unstimulated reference surfaces 1 and 2.

Assay [3] concerns MG-63 cells. Briefly: Production of alkaline phosphatase (ALP) by MG-63 cells with Sr(NO3)2 added to the wells. The method, then:
MG-63 is a human cell line (ATCC No CRL-1427, U.S.) conventionally used in the art for in vitro studies of osteoblasts.
In this study, MG-63 cells were obtained from frozen cells in second passage and further cultured in Dulbecco's modified Eagle's medium (DMEM) containing FCS 5%, PEST 1%, Gibco, UK) in 37° C. in an atmosphere of 5% CO2 and 100% humidity. When the cells reached confluence they were subcultured by the use of 0.05% Trypsin-EDTA (Gibco, UK) until the amount of cells were obtained.
In order to study the effect of strontium on the production of alkaline phosphatase (ALP), MG-63 cells prepared in reference example 1 were subcultured into 24 well plates at a plating density of 10 000 cells/cm^2, in total 20 000 cells/well. Sterile filtered Sr(NO3)2 at final concentrations of 10 mM, 5 mM, 3 mM, and 1 mM respectively (pH 5.2) were added to the respective wells of the plate. Untreated cells were used as controls. Cells were cultured for 3, 7 and 14 days at a temperature of 37° C. in an atmosphere of 5% CO2 and 100% humidity.
as §1

On to `O=[N+]([O-])[O-].O=[N+]([O-])[O-].[Sr+2]` [strontium, Sr(NO3)2], for which the “MG-63 cell proliferation, rank” value in the assay on MG-63 cells [1] is recorded as “highest MG-63 cell proliferation”. Besides, in the assay on MG-63 cells [2], the “production of ALP compared with unstimulated reference surfaces 1 and 2” value is recorded as “increased production of ALP”. Also, the “amount of ALP, rank among concentrations” value in the assay with MG-63 cells [3] (3 mM strontium, after 14 days of culturing) is “highest amount of ALP”. Besides, the “production of ALP compared to control” value in the assay with MG-63 cells [3] (after 7 days of culture) was “small increase”. Besides, the “ALP levels compared to control” value with MG-63 cells [3] (after 14 days, especially at Sr concentrations 1 mM and 3 mM) is “remarkably increased”. Moreover, the “production of ALP compared to control (unstimulated cells)” value with MG-63 cells [3] (initially (3 days), all strontium concentrations (1, 3, 5, 10 mM), polystyrene) is reported as “initially slow”.
